# “Also recorded” adds a separate entry of the source.
# Legend:
# [1] = 30-day oral film study: body weight, food intake, organ weight to tibia length ratio, tolerability; format: in vivo, mice
# Source text: In this study, there were 4 groups.
# IVM was given for 30 days, 5 times per week for 6 weeks. […] After being presented with the tip of the gavage needle, mice would self-administer the oral films.
# Ethanol intake was expressed as g/kg/24-h and summarized using means±SEM across groups. A two-way ANOVA was used to analyze 10E intake between the 4 groups over the 30 days of treatment. A one-way ANOVA was used to compare mean 10E intake, 10E preference, water intake, fluid intake, food intake, mouse weight, and organ weight/tibia length ratio across the 4 groups. GraphPAD Prism software (San Diego, Calif.) was used for data analysis.
# female WT mice = experiment: 24-h two-bottle choice paradigm, 10% ethanol in water (10E) vs water, IVM oral thin film or gavage; format: in vivo
# mice = settings: cited from earlier work
# [2] = IVM 0.21 mg oral thin film, 30 days, vs control and placebo groups
# [3] = doses needed to produce the anti-alcohol effects (Bortolato 2013)
smiles,measurement,setting,value
"CC[C@H](C)[C@H]1O[C@]2(CC[C@@H]1C)C[C@@H]1C[C@@H](C/C=C(\C)[C@@H](O[C@H]3C[C@H](OC)[C@@H](O[C@H]4C[C@H](OC)[C@@H](O)[C@H](C)O4)[C@H](C)O3)[C@@H](C)/C=C/C=C3\CO[C@@H]4[C@H](O)C(C)=C[C@@H](C(=O)O1)[C@]34O)O2 [IVM, ivermectin]",organ weight to tibia length ratio,"[1]; IVM 0.21 mg oral thin film, 30 days, 6 organs analyzed, vs control and placebo groups",no significant difference; also recorded: without significantly affecting
same,animal weight gain / change in body weight,"[1]; IVM 0.21 mg oral thin film, 30 days, vs no action and placebo",similar; also recorded: without significantly affecting
same,tolerability / overt signs of toxicity,[1]; chronic (30 day) oral administration of IVM via oral film,well tolerated; also recorded: without causing overt signs of toxicity
same,10E (alcohol) intake,"female WT mice; IVM 0.21 mg oral thin film, 30 days, 5 times per week for 6 weeks, vs no action and placebo film",drank consistently less 10E; also recorded: effective in reducing 10E intake; also recorded: significantly reduces
same,10E preference,female WT mice; [2],significantly less; also recorded: significantly reduces
same,total fluid intake,female WT mice; [2],similar; also recorded: without significantly affecting
same,decrease of 10E intake compared to baseline,"female WT mice; IVM 0.21 mg via fast dissolving oral film, 24-h two bottle choice, female WT mice, n=8, p<0.001 vs baseline",approximately 40%
same,10E intake,"female WT mice; IVM 5 mg/kg, oral gavage (placebo gavage corn oil)",decreased 10E intake
same,rewarding properties (addiction liability),mice; IVM regimen producing anti-alcohol effects,did not exert rewarding properties
same,ethanol intake in mice,mice; acute and 7 day administration (Yardley 2012),significantly reduce
same,anxiolytic-like effects,mice; [3],elicited anxiolytic-like effects
same,overt signs of toxicity,mice; [3],did not induce overt signs of toxicity

# From patent publication US20150366998A1, “ORAL DELIVERY OF DRUG ACTIVES IN LABORATORY ANIMALS USING FAST-DISSOLVING ORAL FILMS” (priority 2014, published 2015)
